In ChEMBL document CHEMBL5230122, “Natural products and other inhibitors of F1FO ATP synthase” (Eur J Med Chem, 2020):
Converted amounts (≈) assume the structure as drawn. One block for each compound: values may come before it. Square brackets hold non-standard residues; d marks the D form. Peptide text beside a SMILES is read from it. * marks the point of attachment. Leu(3R-OH) = CC(C)[C@@H](O)[C@H](N)C(=O)O; NH((S)CH(Me)CH2NMe2) = C[C@@H](CN(C)C)N*; Pro(4S-Me) = C[C@@H]1CN[C@H](C(=O)O)C1; X1 = CC[C@@H](C)/C=C/C(=O)*; Aib = CC(C)(N)C(=O)O; βAla = NCCC(=O)O

Experiments:
NCI-H460 = experiment: Antiproliferative activity against human NCI-H460 cells assessed as reduction in cell viability incubated for 48 hrs by MTT assay; assay type: functional, cell-based; settings: NCI-H460, 48 h
N2a = experiment: Antiproliferative activity against mouse Neuro2a cells assessed as reduction in cell viability incubated for 48 hrs by MTT assay; assay type: functional, cell-based
[1] = Inhibition of bovine heart mitochondrial F0F1-ATP synthase F0 domain assessed as reduction in rate of NADH oxidation for 30 mins by colorimetric assay; assay type: mitochondria, Bos taurus, Mitochondria
DU-145 [2] = experiment: Antiproliferative activity against human DU-145 cells assessed as reduction in cell viability incubated for 3 days by rhodanile-blue dye based microplate reader analysis; assay type: functional; settings: DU-145, 72 h
DU-145 [3] = experiment: Antiproliferative activity against human DU-145 cells assessed as reduction in cell viability preincubated with PrSCs cells for 2 days followed by co-culture with DU-145 for 3 days by rhodanile-blue dye based microplate reader analysis; assay type: functional
[4] = Acute toxicity in mouse assessed as maximum tolerated dose; settings: in vivo
HCT-116 [5] = experiment: Antiproliferative activity against human HCT-116 cells assessed as reduction in cell viability incubated for 72 hrs by MTT assay; assay type: functional, cell-based; settings: HCT-116, 72 h
[6] = Antiproliferative activity against human U87G cells assessed as reduction in cell viability incubated for 72 hrs by MTT assay; assay type: functional, cell-based
P388 = experiment: Anticancer activity against mouse P388 cells assessed as reduction in cell viability incubated for 96 hrs by MTT assay; assay type: functional, cell-based; settings: P388, 96 h
MCF7 [7] = experiment: Antitumor activity against human MCF7 cells assessed as reduction in cell viability incubated for 24 hrs by MTT assay; assay type: functional, cell-based; settings: MCF7, 24 h
NCI-H292 = experiment: Antiproliferative activity against human NCI-H292 cells assessed as reduction in cell viability by MTT assay; assay type: functional, cell-based
HeLa [8] = experiment: Antiproliferative activity against human HeLa cells assessed as reduction in cell viability by MTT assay; assay type: functional, cell-based
[9] = Inhibition of bovine heart mitochondrial F0F1-ATP synthase assessed as rate of NADH oxidation in presence of NADH for 30 mins by colorimetric assay; assay type: mitochondria, Bos taurus, Mitochondria
HeLa [10] = experiment: Cytotoxicity against human HeLa cells assessed as reduction in cell viability; assay type: functional, cell-based
HL-60 [11] = experiment: Cytotoxicity against human HL-60 cells assessed as reduction in cell viability; assay type: functional, cell-based
HL-60 [12] = experiment: Anticancer activity against human HL-60 cells assessed as reduction in cell viability incubated for 72 hrs by CCK-8 assay; assay type: functional, cell-based; settings: HL-60, 72 h
MCF7 [13] = experiment: Anticancer activity against human MCF7 cells assessed as reduction in cell viability incubated for 72 hrs by CCK-8 assay; assay type: functional, cell-based; settings: MCF7, 72 h
NCI-H1299 = experiment: Anticancer activity against human NCI-H1299 cells assessed as reduction in cell viability incubated for 72 hrs by CCK-8 assay; assay type: functional, cell-based; settings: NCI-H1299, 72 h
LoVo = experiment: Anticancer activity against human LoVo cells assessed as reduction in cell viability incubated for 72 hrs by CCK-8 assay; assay type: functional, cell-based
HL-60 [14] = experiment: Anticancer activity against human HL-60 cells assessed inhibition of cell proliferation incubated for 48 hrs by MTT assay; assay type: functional, cell-based; settings: HL-60, 48 h
[15] = Inhibition of mouse liver mitochondrial ATP synthase by microplate immuno-capture ELISA assay; assay type: mitochondria, Mitochondria
K562 [16] = experiment: Antiproliferative activity against human K562 cells assessed as reduction in cell viability incubated for 72 hrs by MTT assay; assay type: functional, cell-based; settings: K562, 72 h
K562 [17] = experiment: Antitumor activity against human K562 cells assessed as reduction in cell viability incubated for 72 hrs by MTT assay; assay type: functional, cell-based; settings: K562, 72 h
HCT-116 [18] = experiment: Antitumor activity against human HCT-116 cells assessed as reduction in cell viability incubated for 72 hrs by MTT assay; assay type: functional, cell-based; settings: HCT-116, 72 h

IC50 (NCI-H460): 12 nM
Structure (SMILES): CO[C@H]1[C@H](O[C@@H]2C[C@@H]3C/C=C/C(=O)O[C@H](CO)C[C@H](O)[C@@H]4C[C@H](C)[C@H](/C=C\C=C\[C@H](C)C[C@H](C2)O3)O4)O[C@@H](C)[C@H](O)[C@H]1O
IC50 (N2a): 44 nM

IC50 (HCT-116 [5]): 54 nM
Structure (SMILES): CO[C@H]1[C@H](O[C@@H]2C[C@@H]3C[C@H](OCCCC=O)[C@@]4(O)C[C@H](C[C@H](O)[C@@H]5C[C@H](C)[C@H](/C=C\C=C\[C@H](C)C[C@H](C2)O3)O5)OC4=O)O[C@@H](C)[C@H](O)[C@H]1O
IC50 (N2a): 84 nM | IC50 [6]: 61 nM

IC50 (P388): 0.88 nM
Structure (SMILES): CC/C(C)=C(\NC(=O)[C@@H](NC(=O)CC(=O)[C@@H](C)CC(C)C)[C@](C)(O)CC)C(=O)NCC(=O)N/C(C(=O)N[C@@H](C(=O)N[C@@H](C(=O)N[C@@H](C(=O)N[C@H](C(=O)N/C(C(=O)N[C@H](C)C(=O)N[C@@H](C(=O)N[C@H](C(=O)NC(C(=O)N[C@H](CN(C)C)C(C)C)=C(C)C)C(C)C)C(C)C)=C(\C)CC)C(C)(C)O)C(C)(C)O)[C@@H](C)CC)C(C)C)=C(\C)CC

IC50 (MCF7 [7]): 80000 nM
Structure (SMILES): Oc1ccc(/C=C/c2cc(O)cc(O)c2)cc1 [RESVERATROL]

IC50 (NCI-H292): 82 nM | IC50 (HeLa [8]): 260 nM
Structure (SMILES): COC[C@@H](C[C@H]1O[C@@](O)([C@H](O)[C@@H]2C[C@H](OC)[C@@H](O)CC/C=C(C)/C=C/[C@@H](O[C@@H]3O[C@@H](C)[C@H](OC)[C@@H](OC(=O)CCC(=O)O)[C@@H]3O)[C@H](C)/C=C(C)/C=C(C)/C=C(\C)C(=O)O2)[C@H](C)[C@@H](O)[C@H]1C)O[C@H]1C[C@](C)(O)[C@@H](O[C@H]2C[C@@H](OC)[C@H](O)[C@@H](C)O2)[C@H](C)O1

IC50 (HL-60 [12]): 610 nM | IC50 (MCF7 [13]): 4980 nM | IC50 (NCI-H1299): 5080 nM | IC50 (LoVo): 1830 nM
Structure (SMILES): CC[C@H](C)[C@H](NC(=S)[C@H](C)NC(=O)[C@H](C)NC(=S)[C@H](CCSC)NC(=S)[C@@H](NC(=O)C(C)=O)C(C)C)C(=S)N[C@@H](C)C(=O)N[C@H]1C(=O)N[C@@H](C(C)C)C(=O)N[C@@H](C)C(=O)N[C@@H](Cc2ccc(OC)cc2)C(=O)N[C@@H](C(O)c2cn(C)c[n+]2C)C(=O)N/C=C\SC1C (stereo partly specified)

Further lines, the compound ahead of its results:

Structure (SMILES): CC[C@@H](C)/C=C/C(=O)N1C[C@@H](C)C[C@H]1C(=O)N[C@@H](C)C(=O)N[C@H](C(=O)NC(C)(C)C(=O)N[C@@H](CC(C)C)C(=O)N[C@@H](CC(C)C)C(=O)NC(C)(C)C(=O)NC(C)(C)C(=O)NCCC(=O)N[C@@H](C)CN(C)C)[C@H](O)C(C)C (X1-[Pro(4S-Me)]A[Leu(3R-OH)][Aib]LL[Aib][Aib][βAla]-{NH((S)CH(Me)CH2NMe2)})
IC50 [1]: 2.8 µg/mL (≈ 2.6 µM) | IC50 (DU-145 [2]): > 1 µg/mL | IC50 (DU-145 [3]): 0.21 µg/mL (≈ 0.195 µM) | MTD [4]: 12.5 mg/kg

Structure (SMILES): CC[C@@H](O)C[C@@H]1O[C@@]2(CC[C@@H]1C)C[C@H]1C[C@H](CC[C@@H](CC)/C=C/C=C/CCC[C@@](C)(O)[C@H](O)C[C@H](O)C[C@@H](O)[C@@H](C)[C@H](O)[C@@H](CC)/C=C/C(=O)O1)O2
IC50 [9]: 1000 nM | IC50 (HeLa [10]): 8200 nM | IC50 (HL-60 [11]): 5800 nM

Structure (SMILES): Ic1ccc(-c2c3ccc(=[N+]4CCCCC4)cc-3oc3cc(N4CCCCC4)ccc23)cc1
IC50 (HL-60 [14]): 100 nM | IC50 [15]: 3900 nM

Structure (SMILES): CC[C@H]1/C=C/C=C/C[C@@H](C)[C@H](O)[C@@](C)(O)C(=O)[C@@H](C)[C@H](O)[C@@H](C)C(=O)[C@@H](C)[C@H](O)[C@@H](C)/C=C/C(=O)O[C@@H]2[C@H](C)[C@H](CC1)O[C@]1(CC[C@H](C)[C@H](C[C@@H](C)O)O1)[C@H]2C [OLIGOMYCIN]
IC50 (K562 [16]): 200 nM | IC50 (HCT-116 [5]): 900 nM | IC50 (K562 [17]): 200 nM | IC50 (HCT-116 [18]): 1000 nM
